Assays:
mice = details: mouse, in vivo; cited from earlier work
MHC gene expression = details: cited from earlier work
NF-κB p65/p50 complex = assay: EMSA of NF-κB p65/p50 complex formation in FRTL-5 thyrocytes; assay type: cell-based, rat; details: FRTL-5, EMSA, 6 hours

## Cn1c(-c2ccccc2)cnc1S [Compound C10, 5-Phenylmethimazole]
mice
  inflammatory response and survival in DSS induced colitis: suppress the inflammatory response and improve survival
MHC gene expression
  potency in suppressing MHC gene expression relative to MMI: 50-100 fold
NF-κB p65/p50 complex
  effect on Poly (I:C)- or LPS-increased p65/p50 complex formation: did not have any significant effect

Source: patent US9326972B2, “Use of phenylmethimazoles, methimazole derivatives, and tautomeric cyclic thiones for the treatment of autoimmune/inflammatory diseases associated with toll-like receptor overexpression” (Ohio University, priority 2004, dated 2016)
